Target: T1, LH2 (light-harvesting 2 complex), B800 site; B850 LH2 when B800-depleted (Cereibacter sphaeroides, UniProt Q3J144+Q3J145)
T1 construct: gene pucA; native complex purified from Rba. sphaeroides membranes (LDAO, then beta-DDM); B800 BChl a removed with LDS for reconstitution; B850 BChl a and carotenoid retained; ring of nine alpha-beta pairs; R30L/R30F genomic at the puc1BA locus, R30E/R30M from pRK415 vectors, in delta-puc1BA delta-puc2BA delta-pufBALMX
Experiment: reconstitution of B800-depleted LH2, absorption spectra
Format: binding
Conditions: 20 mM Tris pH 8, 0.5% beta-DDM, 12 uM pigment, room temperature

T1 sequence (Q3J144 whole entry): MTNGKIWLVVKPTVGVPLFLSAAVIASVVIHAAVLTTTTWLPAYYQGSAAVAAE
T1 sequence (Q3J145 2-51): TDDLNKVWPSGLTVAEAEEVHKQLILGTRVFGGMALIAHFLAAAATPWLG

C=Cc1c(C=O)c2[n]3c1C=C1N=C(C=c4c(C)c5c([n]4[Mg]3)=C(C3=NC(=C2)[C@@H](C)[C@@H]3CCC(=O)OC/C=C(\C)CCC[C@H](C)CCC[C@H](C)CCCC(C)C)[C@@H](C(=O)OC)C5=O)C(CC)=C1C [Chl f]
reconstitution of B800-depleted LH2, absorption spectra: we generated additional novel reconstitutions using Chl f

Reference: publication PMC6358721, “Engineering of B800 bacteriochlorophyll binding site specificity in the Rhodobacter sphaeroides LH2 antenna” (Biochimica et Biophysica Acta. Bioenergetics, 2019)
